According to ChEMBL document CHEMBL1201862, “PubChem BioAssay data set” (2004):
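Interpolation was linear, between the two tested concentrations surrounding the appropriate level; five concentrations were tested over 48 hours in 96-well plates. Here, GI50 denotes the concentration required for 50% inhibition of growth.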 Calls of active or inactive are those of the source. No stated cut-off is given here; in the data, active = GI50 up to about 1.1 µM and inactive = higher.

Experiments:
Experiment in all cases: NCI-60 cell line screen, 48 h
MDA-MB-231 = tested on: MDA-MB-231
BT-549 = tested on: BT-549
SK-OV-3 = tested on: SK-OV-3
SF-268 = tested on: SF-268
MDA-MB-435 = tested on: MDA-MB-435
UO-31 = tested on: UO-31
SNB-75 = tested on: SNB-75
NCI-H460 = tested on: NCI-H460
SK-MEL-5 = tested on: SK-MEL-5
T47D = tested on: T47D
SF-295 = tested on: SF-295
SNB-19 = tested on: SNB-19
OVCAR-8 = tested on: OVCAR-8
U-251 = tested on: U-251
NCI-H226 = tested on: NCI-H226
HOP-62 = tested on: HOP-62
CAKI-1 = tested on: CAKI-1
A549 = tested on: A549
SW-620 = tested on: SW-620
MCF7 = tested on: MCF7
MOLT-4 = tested on: MOLT-4
NCI/ADR-RES = tested on: NCI/ADR-RES
OVCAR-4 = tested on: OVCAR-4
UACC-257 = tested on: UACC-257
Hs-578T = tested on: Hs-578T
A498 = tested on: A498
K562 = tested on: K562
TK-10 = tested on: TK-10
PC-3 = tested on: PC-3
Malme-3M = tested on: Malme-3M
COLO 205 = tested on: COLO 205
MDA-N = tested on: MDA-N
SK-MEL-28 = tested on: SK-MEL-28
OVCAR-3 = tested on: OVCAR-3
CCRF-CEM = tested on: CCRF-CEM
HCT-15 = tested on: HCT-15
HOP-92 = tested on: HOP-92
NCI-H522 = tested on: NCI-H522
HT-29 = tested on: HT-29
SK-MEL-2 = tested on: SK-MEL-2
OVCAR-5 = tested on: OVCAR-5
ACHN = tested on: ACHN
DU-145 = tested on: DU-145
M14 = tested on: M14
NCI-H23 = tested on: NCI-H23
UACC-62 = tested on: UACC-62
RXF 393 = tested on: RXF 393
SF-539 = tested on: SF-539
EKVX = tested on: EKVX
HCT-116 = tested on: HCT-116
SN12C = tested on: SN12C
786-0 = tested on: 786-0
HCC 2998 = tested on: HCC 2998
LOX IMVI = tested on: LOX IMVI
KM12 = tested on: KM12
IGROV-1 = tested on: IGROV-1
SR = tested on: SR
RPMI-8226 = tested on: RPMI-8226
HL-60 = tested on: HL-60

For `CC(C)C(C/C=C1\CC(CO)(COC(=O)C(C)(C)C)OC1=O)C(C)C` (stereo not given), the GI50 (MDA-MB-231) was 5.24 µM (inactive), the GI50 (BT-549) was 11.5 µM (inactive) and the GI50 (SK-OV-3) was 15.1 µM (inactive). For the same compound, the GI50 (SF-268) was 13.2 µM (inactive), the GI50 (MDA-MB-435) was 11.9 µM (inactive) and the GI50 (UO-31) was 5.09 µM (inactive). For the same compound, the GI50 (SNB-75) was 1.84 µM (inactive), the GI50 (NCI-H460) was 5.57 µM (inactive) and the GI50 (SK-MEL-5) was 3.72 µM (inactive). For the same compound, the GI50 (T47D) was 15.1 µM (inactive), the GI50 (SF-295) was 4.06 µM (inactive) and the GI50 (SNB-19) was 13 µM (inactive). The GI50 (OVCAR-8) was 14.8 µM (inactive), the GI50 (U-251) was 10.7 µM (inactive) and the GI50 (NCI-H226) was 5.12 µM (inactive). For the same compound, the GI50 (HOP-62) was 3.11 µM (inactive), the GI50 (CAKI-1) was 8.73 µM (inactive) and the GI50 (A549) was 4.42 µM (inactive). The GI50 (SW-620) was 4.48 µM (inactive), the GI50 (MCF7) was 20.7 µM (inactive) and the GI50 (MOLT-4) was 0.581 µM (active). For the same compound, the GI50 (NCI/ADR-RES) was 13.6 µM (inactive), the GI50 (OVCAR-4) was 16.3 µM (inactive) and the GI50 (UACC-257) was 16 µM (inactive). For the same compound, the GI50 (Hs-578T) was 2.5 µM (inactive), the GI50 (A498) was 14.1 µM (inactive) and the GI50 (K562) was 0.942 µM (active). For the same compound, the GI50 (TK-10) was 7.23 µM (inactive), the GI50 (PC-3) was 5.05 µM (inactive) and the GI50 (Malme-3M) was 10.7 µM (inactive). For the same compound, the GI50 (COLO 205) was 1.64 µM (inactive), the GI50 (MDA-N) was 4.97 µM (inactive) and the GI50 (SK-MEL-28) was 13.2 µM (inactive). For the same compound, the GI50 (OVCAR-3) was 12.6 µM (inactive), the GI50 (CCRF-CEM) was 10.6 µM (inactive) and the GI50 (HCT-15) was 13.4 µM. For the same compound, the GI50 (HOP-92) was 10.3 µM (inactive), the GI50 (NCI-H522) was 14.1 µM (inactive) and the GI50 (HT-29) was 19.3 µM (inactive). For the same compound, the GI50 (SK-MEL-2) was 20.6 µM (inactive), the GI50 (OVCAR-5) was 10.5 µM (inactive) and the GI50 (ACHN) was 11 µM (inactive). The GI50 (DU-145) was 4.65 µM (inactive), the GI50 (M14) was 13.9 µM (inactive) and the GI50 (NCI-H23) was 4.9 µM (inactive). The GI50 (UACC-62) was 15.2 µM (inactive), the GI50 (RXF 393) was 15.6 µM (inactive) and the GI50 (SF-539) was 7.93 µM (inactive). The GI50 (EKVX) was 11.1 µM (inactive), the GI50 (HCT-116) was 10.5 µM (inactive) and the GI50 (SN12C) was 5.69 µM (inactive). For the same compound, the GI50 (786-0) was 2.65 µM (inactive), the GI50 (HCC 2998) was 7.03 µM (inactive) and the GI50 (LOX IMVI) was 2.88 µM (inactive). For the same compound, the GI50 (KM12) was 12.7 µM (inactive), the GI50 (IGROV-1) was 14.3 µM (inactive) and the GI50 (SR) was 11.5 µM (inactive).

In the case of `CN(C)c1ccc(/N=N/c2ccccn2)cc1`, the GI50 (MDA-MB-231) is reported as 20.8 µM (inactive), the GI50 (BT-549) is reported as 81.3 µM (inactive) and the GI50 (SK-OV-3) is reported as 38.7 µM (inactive). The GI50 (SF-268) was 51.2 µM (inactive), the GI50 (MDA-MB-435) was 23.4 µM (inactive) and the GI50 (UO-31) was 24.1 µM (inactive). For the same compound, the GI50 (SNB-75) was 52.1 µM (inactive), the GI50 (NCI-H460) was 28.8 µM (inactive) and the GI50 (SK-MEL-5) was 15.4 µM (inactive). The GI50 (T47D) was 11.2 µM (inactive), the GI50 (SF-295) was 37 µM (inactive) and the GI50 (SNB-19) was 58.6 µM (inactive). The GI50 (OVCAR-8) was 38.9 µM (inactive), the GI50 (U-251) was 4.66 µM (inactive) and the GI50 (NCI-H226) was 32 µM (inactive). For the same compound, the GI50 (RPMI-8226) was 11.3 µM (inactive), the GI50 (HOP-62) was 71 µM (inactive) and the GI50 (CAKI-1) was 32.2 µM (inactive). For the same compound, the GI50 (A549) was 19.8 µM (inactive), the GI50 (SW-620) was 17.5 µM (inactive) and the GI50 (MCF7) was 3.18 µM (inactive). The GI50 (MOLT-4) was 4.17 µM (inactive), the GI50 (NCI/ADR-RES) was 5.04 µM (inactive) and the GI50 (OVCAR-4) was 36.2 µM (inactive). For the same compound, the GI50 (UACC-257) was 3.89 µM (inactive), the GI50 (Hs-578T) was > 100 µM (inactive) and the GI50 (A498) was 22.1 µM (inactive). For the same compound, the GI50 (K562) was 4.61 µM (inactive), the GI50 (TK-10) was 35.7 µM (inactive) and the GI50 (PC-3) was 3.97 µM (inactive). The GI50 (Malme-3M) was 22.6 µM (inactive), the GI50 (COLO 205) was 6.58 µM (inactive) and the GI50 (MDA-N) was 33.7 µM (inactive). For the same compound, the GI50 (SK-MEL-28) was > 100 µM (inactive), the GI50 (OVCAR-3) was 4.21 µM (inactive) and the GI50 (CCRF-CEM) was 4.17 µM (inactive). The GI50 (HCT-15) was 25.2 µM, the GI50 (HOP-92) was 69.8 µM (inactive) and the GI50 (NCI-H522) was 38.7 µM (inactive). The GI50 (HT-29) was 11.1 µM (inactive), the GI50 (SK-MEL-2) was 55.1 µM (inactive) and the GI50 (OVCAR-5) was > 100 µM (inactive). For the same compound, the GI50 (ACHN) was 31.8 µM (inactive), the GI50 (DU-145) was 48.6 µM (inactive) and the GI50 (M14) was 9.82 µM (inactive). For the same compound, the GI50 (NCI-H23) was 14.2 µM (inactive), the GI50 (HL-60) was 4.26 µM (inactive) and the GI50 (UACC-62) was 33.4 µM (inactive). The GI50 (RXF 393) was > 100 µM (inactive), the GI50 (SF-539) was 52.2 µM (inactive) and the GI50 (EKVX) was 11.9 µM (inactive). For the same compound, the GI50 (HCT-116) was 6.67 µM (inactive), the GI50 (SN12C) was 41.5 µM (inactive) and the GI50 (786-0) was 49 µM (inactive). The GI50 (HCC 2998) was 14.1 µM (inactive), the GI50 (LOX IMVI) was 57.5 µM (inactive) and the GI50 (KM12) was 43.1 µM (inactive). The GI50 (IGROV-1) was 5.93 µM (inactive).
